Test results reported in the supplement of paper PMC13380429.
± gives the standard deviation of the averaged measurements.

Columns and labels:
Details in all cases: 72 h
[1] = tested on: Caco-2; experiment: cell viability relative to DMSO; higher = less toxic
[2] = tested on: Calu-3; experiment: as above
[3] = tested on: HepG2; experiment: as above
[4] = tested on: U2OS; experiment: as above
[5] = tested on: Vero E6; experiment: as above
[6] = tested on: Caco-2; experiment: relative viability EC50 (midpoint between 100% and the lowest measured viability); higher = less toxic
[7] = tested on: Calu-3; experiment: as above
[8] = tested on: HepG2; experiment: as above
[9] = tested on: U2OS; experiment: as above
[10] = tested on: Vero E6; experiment: as above
[11] = tested on: Caco-2; experiment: drug sensitivity score (DSS) for viability; higher = more toxic; extreme values may be limits of the assay
[12] = tested on: Calu-3; experiment: as above
[13] = tested on: HepG2; experiment: as above
[14] = tested on: U2OS; experiment: as above
[15] = tested on: Vero E6; experiment: as above

| SMILES | cell viability ([1]; 1 nM) [%] | cell viability ([1]; 10 nM) [%] | cell viability ([1]; 100 nM) [%] | cell viability ([1]; 1000 nM) [%] | cell viability ([1]; 10000 nM) [%] | cell viability ([2]; 1 nM) [%] | cell viability ([2]; 10 nM) [%] | cell viability ([2]; 100 nM) [%] | cell viability ([2]; 1000 nM) [%] | cell viability ([2]; 10000 nM) [%] | cell viability ([3]; 1 nM) [%] | cell viability ([3]; 10 nM) [%] | cell viability ([3]; 100 nM) [%] | cell viability ([3]; 1000 nM) [%] | cell viability ([3]; 10000 nM) [%] | cell viability ([4]; 1 nM) [%] | cell viability ([4]; 10 nM) [%] | cell viability ([4]; 100 nM) [%] | cell viability ([4]; 1000 nM) [%] | cell viability ([4]; 10000 nM) [%] | cell viability ([5]; 1 nM) [%] | cell viability ([5]; 10 nM) [%] | cell viability ([5]; 100 nM) [%] | cell viability ([5]; 1000 nM) [%] | cell viability ([5]; 10000 nM) [%] | relative viability EC50 [6] [µM] | relative viability EC50 [7] [µM] | relative viability EC50 [8] [µM] | relative viability EC50 [9] [µM] | relative viability EC50 [10] [µM] | drug sensitivity score [11] | drug sensitivity score [12] | drug sensitivity score [13] | drug sensitivity score [14] | drug sensitivity score [15] |
| --- | --- | --- | --- | --- | --- | --- | --- | --- | --- | --- | --- | --- | --- | --- | --- | --- | --- | --- | --- | --- | --- | --- | --- | --- | --- | --- | --- | --- | --- | --- | --- | --- | --- | --- | --- |
| C[C@@H]1CCN(C(=O)CC#N)C[C@@H]1N(C)c1ncnc2[nH]ccc12 | 102 | 103 | 94.4 | 96.9 | 104 | 96.3 | 97.5 | 106 | 112 | 110 | 111 | 94.4 | 105 | 97.7 | 108 | 101 | 103 | 101 | 103 | 96.9 | 98.6 | 94.8 | 97 | 98.3 | 96.1 | > 10 | > 10 | > 10 | > 10 | > 10 | 0 | 0 | 0 | 0 | 0 |
| Cc1ccc2c(=O)c3ccccc3n(CCCN)c2c1C | 100 | 92.8 | 91.6 | 72.7 | 28.5 | 97.8 | 102 | 104 | 81.3 | 20.6 | 99.3 | 94.2 | 102 | 38.2 | 5.4 | 100 | 102 | 96.9 | 103 | 1.3 | 96.2 | 99.9 | 91.7 | 57 | 3.7 | 1.32 | 1.6 | 0.777 | 3.33 | 1.12 | 7 | 7.3 | 12.4 | 5.3 | 10.3 |
| Cc1cccc(-c2[nH]c(C(C)(C)C)nc2-c2ccc3nccnc3c2)n1 | 104 | 98.1 | 104 | 91.1 | 29.8 | 106 | 104 | 109 | 102 | 87.3 | 101 | 95.2 | 103 | 80.5 | 12.9 | 96.8 | 101 | 95 | 89.2 | 79 | 99.3 | 99.4 | 104 | 98.1 | 81.6 | 2.14 | > 10 | 1.64 | > 10 | > 10 | 5.4 | 0 | 7.9 | 1.3 | 0.7 |
| Cc1ncc(Cl)cc1NCc1ccc(C(=O)N[C@@H](CC2CCCC2)C(=O)NC2CC2)s1 | 99.9 | 104 | 97.5 | 96.3 | 96.6 | 94.7 | 106 | 99.8 | 89.7 | 109 | 100 | 102 | 97.5 | 89.7 | 88.2 | 99.5 | 104 | 94.5 | 95 | 90.6 | 107 | 94.7 | 104 | 98 | 91.6 | > 10 | > 10 | > 10 | > 10 | > 10 | 0 | 0 | 0.4 | 0 | 0 |
| Cc1noc(NS(=O)(=O)c2cccc3c(N(C)C)cccc23)c1C | 80.6 | 103 | 96.7 | 91.7 | 105 | 97.7 | 104 | 95.4 | 97.3 | 103 | 99.6 | 96 | 108 | 94.5 | 110 | 93.5 | 101 | 100 | 100 | 103 | 103 | 92.8 | 98.3 | 90.5 | 103 | > 10 | > 10 | > 10 | > 10 | > 10 | 0 | 0 | 0 | 0 | 0 |
| O=C(O)c1ccc(CN2CCC(CN[C@@H]3C[C@H]3c3ccccc3)CC2)cc1 | 101 | 108 | 94 | 105 | 102 | 89.3 | 101 | 94.7 | 102 | 103 | 105 | 93.8 | 104 | 92.5 | 92 | 95.9 | 96.8 | 95.8 | 98.3 | 96 | 100 | 103 | 99.2 | 90.9 | 95.2 | > 10 | > 10 | > 10 | > 10 | > 10 | 0 | 0 | 0 | 0 | 0 |
| Oc1ccc(-c2nc(-c3ccc(F)cc3)c(-c3ccncc3)[nH]2)cc1 | 88.1 | 104 | 100 | 95 | 91.1 | 87.3 | 106 | 104 | 118 | 91.2 | 101 | 103 | 102 | 94 | 83.5 | 96.6 | 101 | 94.8 | 98.1 | 89.8 | 97.7 | 100 | 91.1 | 93.4 | 111 | > 10 | > 10 | > 10 | > 10 | > 10 | 0 | 0 | 0.9 | 0 | 0 |
| N[C@@H](C(=O)O)c1ccc(C(=O)O)c(O)c1 (racemic) [4-carboxy-3-hydroxyphenylglycine-(RS)] | 98.6 | 97.4 | 92.6 | 110 | 103 | 94.7 ± 5.6 | 91.5 ± 6.3 | 95.95 ± 0.35 | 94.5 ± 1.1 | 99.5 ± 2 | 99.7 ± 6.4 | 113 ± 12 | 104 ± 6.9 | 107 ± 4 | 98.7 ± 16 | 97.1 ± 3 | 99.4 ± 2.1 | 97.8 ± 3.1 | 98.7 ± 4.6 | 105 ± 1.8 | 101.5 ± 0.78 | 98.35 ± 0.49 | 97.35 ± 0.92 | 102 ± 5.4 | 105 ± 12 | > 10 | > 10 | > 10 | > 10 | > 10 | 0 | 0 | 0 | 0 | 0 |
| Nc1ccc(-c2nc3ccc(-c4nc5ccc(N)cc5[nH]4)cc3[nH]2)cc1 [Ro-90-7501] | 94 | 91.6 | 96.8 | 95.3 | 99.7 | 104 | 105 | 102 | 102 | 97 | 98.3 | 98.7 | 93.4 | 79.5 | 54.6 | 105 | 94.5 | 100 | 98.5 | 100 | 93.3 | 101 | 89.7 | 98.7 | 113 | > 10 | > 10 |  | > 10 | > 10 | 0 | 0 | 4.5 | 0 | 0 |
| COC(=O)c1c(-c2cc(OC)c(OC)c(OC)c2)c2ccnc(OCc3ncccn3)c2c(=O)n1Cc1ccnc(C)c1 [T-0156] | 96.4 | 93 | 89.6 | 99.9 | 103 | 87 | 96.4 | 90.2 | 98.5 | 101 |  |  |  |  |  | 95.6 | 103 | 96.5 | 99.3 | 100 | 96 | 94.4 | 102 | 105 | 109 | > 10 | > 10 |  | > 10 | > 10 | 0 | 0 |  | 0 | 0 |
| CN(C)CC(c1ccc(O)cc1)C1(O)CCCCC1 (stereo not drawn) [desvenlafaxine] | 105 | 102 | 99.6 | 98.2 | 99.2 | 98.8 | 110 | 97.3 | 109 | 98.7 |  |  |  |  |  | 99.1 | 99.7 | 96.5 | 97.5 | 94.2 | 101 | 97.2 | 97.5 | 92.6 | 94.3 | > 10 | > 10 |  | > 10 | > 10 | 0 | 0 |  | 0 | 0 |
| Cc1cccc(C)c1NC(=O)c1ccccc1C(=O)O [ftaxilide] | 94.5 | 100 | 102 | 99.8 | 104 | 103 | 106 | 98.6 | 122 | 106 |  |  |  |  |  | 102 | 105 | 98.5 | 101 | 97.2 | 107 | 102 | 99.8 | 96.3 | 100 | > 10 | > 10 |  | > 10 | > 10 | 0 | 0 |  | 0 | 0 |
